Broadly, the IC50 is the concentration at which inhibition is half-maximal.

Each structure is given as a SMILES string.

The values below come from patent US7439363B2, “Substituted indazoly(indoly)maleimide derivatives as kinase inhibitors” (Janssen Parmaceutica N.V., priority 2003, dated 2008).

What all share (format): biochemical
The target in one assay is PKC isoform α (Homo sapiens, UniProt P17252). The assay can be described thus: Protein Kinase C histone-based assay, PKC alpha. The following applies: histone III substrate, 30 μM ATP. The method, then:
(§1) Protein Kinase C Histone-Based Assay
(§2) Compounds were evaluated for PKC selectivity using histone III as the substrate. The PKC isoforms α, β-II or γ were added to a reaction mixture that contained 20 mM HEPES, (pH 7.4), 940 μM CaCl2, 10 mM MgCl2, 1 mM EGTA. 100 μg/mL phosphatidylserine, 20 μg/mL diacylglycerol, 30 μM ATP, 1 μCi (^33P)ATP and 200 μg/mL histone III. The reaction was incubated for 10 min at 30° C. Reactions were terminated by TCA precipitation and spotting on Whatman P81 filters. Filters were washed in 75 mM phosphoric acid and the radioactivity quantified by liquid scintillation counting.

Another assay addresses PKC isoform β-II (Homo sapiens, UniProt P05771). The assay can be described thus: Protein Kinase C histone-based assay, PKC beta II. The settings on record: histone III substrate, 30 μM ATP. The protocol: as §1, §2
A further assay has as its target PKC isoform γ (Homo sapiens, UniProt P05129). The assay can be described thus: Protein Kinase C histone-based assay, PKC gamma. The following applies: histone III substrate, 30 μM ATP. The protocol:
as §1, §2

Assay [1] has as its target T1, recombinant rabbit GSK-3β protein (Oryctolagus cuniculus, UniProt G1T8E2).
T1 construct: purchased New England Biolabs
In words: Glycogen Synthase Kinase-3 assay (PPI-2 phosphorylation). The settings on record: for IC50: PPI-2 substrate, 33P-ATP. The method, then:
Glycogen Synthase Kinase-3 Assay
Compounds were tested for the ability to inhibit recombinant rabbit GSK-3β protein using the following protocol. The test compound was added to a reaction mixture containing Protein phosphatase inhibitor-2 (PPI-2) (Calbiochem) (45 ng), rabbit GSK-3β protein (New England Biolabs) (0.75 units) and ^33P-ATP (1 μCi) in 50 mM Tris-HCl (pH 8.0), 10 mM MgCl2, 0.1% BSA, 1 mM DTT and 100 μM Sodium Vanadate. The mixture was reacted for 90 minutes at 30° C. to allow phosphorylation of the PPI-2 protein and then the protein in the reaction was precipitated using 10% TCA. The precipitated protein was collected on filter plates (MultiScreen-DV/Millipore), which were subsequently washed. Finally, the radioactivity was quantified using a TopCount Scintillation Counter (Packard). […] Staurosporine or Valproate, known inhibitors of GSK-3β, were used as a positive control for screening.

Sequence of PKC isoform β-II (P05771 1-673 isoform P05771-2): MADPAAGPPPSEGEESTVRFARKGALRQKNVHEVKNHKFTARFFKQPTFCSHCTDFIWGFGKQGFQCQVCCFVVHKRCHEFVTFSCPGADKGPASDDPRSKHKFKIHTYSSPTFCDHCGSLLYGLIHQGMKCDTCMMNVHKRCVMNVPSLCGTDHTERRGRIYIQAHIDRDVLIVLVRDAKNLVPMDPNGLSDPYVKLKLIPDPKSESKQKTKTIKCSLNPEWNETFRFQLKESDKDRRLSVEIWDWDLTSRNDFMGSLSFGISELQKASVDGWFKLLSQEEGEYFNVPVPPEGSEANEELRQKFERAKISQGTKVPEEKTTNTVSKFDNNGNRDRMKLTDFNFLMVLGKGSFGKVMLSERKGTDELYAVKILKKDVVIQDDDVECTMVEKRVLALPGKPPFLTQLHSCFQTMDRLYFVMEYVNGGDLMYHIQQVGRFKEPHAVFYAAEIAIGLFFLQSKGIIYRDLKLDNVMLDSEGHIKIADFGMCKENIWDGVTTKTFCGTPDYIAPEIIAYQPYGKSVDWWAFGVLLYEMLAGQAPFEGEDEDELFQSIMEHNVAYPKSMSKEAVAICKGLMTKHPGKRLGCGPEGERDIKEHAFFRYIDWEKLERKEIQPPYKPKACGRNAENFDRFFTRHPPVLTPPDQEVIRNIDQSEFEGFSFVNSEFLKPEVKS
T1 sequence (G1T8E2 1-432): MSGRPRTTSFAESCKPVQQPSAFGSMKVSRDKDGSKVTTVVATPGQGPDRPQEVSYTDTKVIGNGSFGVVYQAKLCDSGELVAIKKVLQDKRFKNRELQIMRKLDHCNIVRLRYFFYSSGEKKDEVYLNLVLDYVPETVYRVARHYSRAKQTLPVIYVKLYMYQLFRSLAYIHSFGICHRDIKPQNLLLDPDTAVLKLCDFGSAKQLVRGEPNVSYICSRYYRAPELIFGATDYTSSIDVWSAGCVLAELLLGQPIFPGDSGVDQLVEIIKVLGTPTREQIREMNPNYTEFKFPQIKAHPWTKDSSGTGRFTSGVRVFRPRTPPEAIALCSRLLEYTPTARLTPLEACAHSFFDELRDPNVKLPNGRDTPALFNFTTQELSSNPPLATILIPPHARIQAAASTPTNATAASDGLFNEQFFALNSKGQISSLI

Regarding `Cn1cc(C2=C(c3nn(CCCn4cnnn4)c4ccccc34)C(=O)NC2=O)c2cc(Cl)ccc21` [Compound 4, 3-(5-Chloro-1-methyl-1H-indol-3-yl)-4-[1-(3-tetrazol-1-yl-propyl)-1H-indazol-3-yl]-pyrrole-2,5-dione], the IC50 against PKC isoform α amounted to 0.505 µM; at PKC isoform β-II it was 0.035 µM; against PKC isoform γ, 0.544 µM; in assay [1], 0.004 µM.
The like results for `Cc1nnn(CCCn2nc(C3=C(c4cn(C)c5ccc(Cl)cc45)C(=O)NC3=O)c3ccccc32)n1` [Compound 9] were, in that order, 2.98 µM, 0.041 µM, 1.42 µM and 0.005 µM.
The like results for `O=C1NC(=O)C(c2nn(CCCn3ncnn3)c3ccccc23)=C1c1cn(-c2cccnc2)c2ccccc12` [Compound 7, 3-(1-Pyridin-3-yl-1H-indol-3-yl)-4-[1-(3-tetrazol-2-yl-propyl)-1H-indazole-3-yl]-pyrrole-2,5-dione] were, in that order, 0.451 µM, 0.044 µM, 1.45 µM and 0.027 µM.
Consider `O=C1NC(=O)C(c2nn(CCCn3cnnn3)c3ccccc23)=C1c1cn(-c2ccc3ccccc3c2)c2ccccc12` [Compound 6, 3-(1-Naphthalen-2-yl-1H-indol-3-yl)-4-[1-(3-tetrazol-1-yl-propyl)-1H-indazol-3-yl]pyrrole-2,5-dione], for which the values for the IC50 on PKC isoform α, at PKC isoform β-II and against PKC isoform γ were 0.326 µM, 0.022 µM and 1.11 µM, respectively. Also, the “GSK-3β Assay Activity, % @ 1 μM” value in assay [1] (@ 1 μM) was determined as 29% @ 1 μM.
For the compound `Cn1cc(C2=C(c3nn(CCc4nnn[nH]4)c4ccccc34)C(=O)NC2=O)c2cc(Cl)ccc21` [Compound 11, 3-(5-Chloro-1-methyl-1H-indol-3-yl)-4-{1-[2-(1H-tetrazol-5-yl)-ethyl]-1H-indazol-3-yl)-pyrrole-2,5-dione], the IC50 was determined as 1.36 µM against PKC isoform α, 0.123 µM at PKC isoform β-II, 1.93 µM against PKC isoform γ and 0.005 µM in assay [1].
The like results for `O=C1NC(=O)C(c2nn(CCCn3cnnn3)c3ccccc23)=C1c1cn(-c2cccnc2)c2ccccc12` [Compound 8, 3-(1-Pyridin-3-yl-1H-indol-3-yl)-4-[1-(3-tetrazol-1-yl-propyl)-1H-indazol-3-yl]-pyrrole-2,5-dione] were, in that order, 1.04 µM, 0.052 µM, 4.3 µM and 0.034 µM.
In the same order, the values of `O=C1NC(=O)C(c2nn(CCCn3ncnn3)c3ccccc23)=C1c1cn(-c2ccc3ccccc3c2)c2ccccc12` [Compound 5, 3-(1-Naphthalen-2-yl-1H-indole-3-yl)-4-[1-(3-tetrazol-2-yl-propyl)-1H-indazol-3-yl]-pyrrole-2,5-dione] are 0.542 µM, 0.025 µM, 1.7 µM and 0.776 µM.
In the same order, the values of `Cn1cc(C2=C(c3nn(CCCn4ncnn4)c4ccccc34)C(=O)NC2=O)c2cc(Cl)ccc21` [Compound 3, 3-(5-Chloro-1-methyl-1H-indol-3-yl)-4-[1-(3-tetrazol-2-yl-propyl)-1H-indazol-3-yl]pyrrole-2,5-dione] are 2.35 µM, 0.045 µM, 1.01 µM and 0.004 µM.
In the case of `Cc1nnnn1CCCn1nc(C2=C(c3cn(C)c4ccc(Cl)cc34)C(=O)NC2=O)c2ccccc21` [Compound 10], the IC50 came to 0.424 µM on PKC isoform α, 0.009 µM on PKC isoform β-II, 0.602 µM on PKC isoform γ and 0.005 µM in assay [1].
In the same order, the values of `Cn1cc(C2=C(c3nn(CCCn4ccnc4)c4ccccc34)C(=O)NC2=O)c2cc(Cl)ccc21` [Compound 1, 3-(5-Chloro-1-methyl-1H-indol-3-yl)-4-[1-(3-imidazol-1-yl-propyl)-1H-indazol-3-yl]-pyrrole-2,5-dione] are 0.567 µM, 0.015 µM, 0.476 µM and 0.004 µM.
The like results for `O=C1NC(=O)C(c2nn(CCc3nnn[nH]3)c3ccccc23)=C1c1cn(-c2cccnc2)c2ccc(Cl)cc12` [Compound 12] were, in that order, 0.554 µM, 0.069 µM, 0.226 µM and 0.107 µM.
The like results for `Cn1cc(C2=C(c3nn(CCCn4ccnn4)c4ccccc34)C(=O)NC2=O)c2cc(Cl)ccc21` [Compound 2, 3-(5-Chloro-1-methyl-1H-indole-3-yl)-4-[1-(3-[1,2,3]triazole-1-yl-propyl)-1H-indzol-3-yl]-pyrrole-2,5-dione] were, in that order, 1.21 µM, 0.046 µM, 0.395 µM and 0.003 µM.
